By fraction unbound is commonly meant free concentration divided by total concentration. Low readings indicate little free substance, high ones much free substance. The pEC50 is −log10 of the EC50, conventionally taken in molar units. Low readings indicate a large EC50, high ones a small EC50.

pEC50: −log10 of the molar value. Like-named read-outs stand apart in the source and are kept apart here. Non-standard residues stand in square brackets, D forms with d. Residues, ends and D or L forms follow the SMILES beside them. No end group written: not given here. Bounds are passed on as bounds.

The text below walks through data of patent publication US11117930B2, “Peptide inhibitors of transcription factor aggregation” (ADRX, INC., priority 2017, dated 2021).

A short description of data set [1]: Protein binding in human serum. As to conditions: CPP linked peptides. The format is in vitro ADME.
In data set [2] the test system is Detroit-562. Type of data set: cell-based. The note with it: 24 h. The protocol:
(§1) To render the inhibitors cell permeable, the peptides are fused to either a nine-residue poly L-Arg tag or a nine-residue poly D-Arg tag, through one of several three-residue linkers, either L-RPI, D-RPI, or D-GGG. Cancer cell lines, e.g. OVCAR-3, and Detroit 562 are treated with the peptide conjugates for 24 hours by the following method. OVCAR3 and Detroit-562 cells are grown in ATCC recommended growth media. The peptides were made in a 4 mM stock. Cells are plated in 96-well flat bottom clear plates at 7000 cells/well. After 24 hours, compounds are serially diluted in one-third [starting at 33 μM] or one-half [starting at 30 μM] dilutions in PrEGM media (Lonza). Growth media was removed from the wells and compound in PrEGM was added to 100 ul final volume. 24 hours post-compound addition cell metabolism was measured by addition of 20 μl MTS solution (Promega, cell-titer 96 aqueous). Absorbance was read at 490 nm following a 2 hour incubation and data was processed in Prism Graphpad to generate EC50 values.

For data set [3], the system named is OVCAR3. Type of data set: cell-based. The note with it: 24 h. The protocol:
as §1

The nature of data set [4]: Stability in human serum. Type of data set: in vitro ADME. As to conditions: CPP linked peptides, read-out: Stability in Human Serum (t1/2).

In turn, `CC[C@@H](C)[C@@H](NC(=O)[C@H]1CCCN1C(=O)[C@@H](CCCNC(=N)N)NC(=O)[C@@H](CCCNC(=N)N)NC(=O)[C@@H](CCCNC(=N)N)NC(=O)[C@@H](CCCNC(=N)N)NC(=O)[C@@H](CCCNC(=N)N)NC(=O)[C@@H](CCCNC(=N)N)NC(=O)[C@@H](CCCNC(=N)N)NC(=O)[C@@H](CCCNC(=N)N)NC(=O)[C@@H](CCCNC(=N)N)NC(=O)[C@H](N)CCCNC(=N)N)C(=O)N[C@H](CCCCN)C(=O)N[C@H](Cc1ccccc1)C(=O)N[C@H](CCCNC(=N)N)C(=O)N[C@H](Cc1ccccc1)C(=O)N[C@H](Cc1ccc(O)cc1)C(=O)N[C@H](Cc1c[nH]cn1)C(=O)N[C@H](CCCNC(=N)N)C(=O)O` [rrrrrrrrrrpikfrfyhr] (H-[dR][dR][dR][dR][dR][dR][dR][dR][dR][dR][dP][dI][dK][dF][dR][dF][dY][dH][dR]-OH) gave a fraction unbound in data set [1] of 0.14. Also, the pEC50 is 5.30 in data set [2] and 5.40 in data set [3]. In addition, the half-life in data set [4] (cells given in hr) was more than 24 h.

In the case of `CC[C@H](C)[C@H](NC(=O)[C@@H]1CCCN1C(=O)[C@H](CCCNC(=N)N)NC(=O)[C@H](CCCNC(=N)N)NC(=O)[C@H](CCCNC(=N)N)NC(=O)[C@H](CCCNC(=N)N)NC(=O)[C@H](CCCNC(=N)N)NC(=O)[C@H](CCCNC(=N)N)NC(=O)[C@H](CCCNC(=N)N)NC(=O)[C@H](CCCNC(=N)N)NC(=O)[C@H](CCCNC(=N)N)NC(=O)[C@@H](N)CCCNC(=N)N)C(=O)N[C@H](Cc1ccc(O)cc1)C(=O)N[C@H](CCC(N)=O)C(=O)N[C@H](Cc1c[nH]c2ccccc12)C(=O)N[C@H](Cc1ccc(O)cc1)C(=O)N[C@H](CCCNC(=N)N)C(=O)N[C@H](Cc1c[nH]c2ccccc12)C(=O)N[C@H](CCC(N)=O)C(=O)O` [RRRRRRRRRRPIyqwyrwq] (H-RRRRRRRRRRPI[dY][dQ][dW][dY][dR][dW][dQ]-OH; N-terminus and C-terminus assumed), the fraction unbound in data set [1] was 0.02. In addition, the values for the pEC50 in data set [2] and in data set [3] were 4.89 and 5.00, respectively. Besides, in data set [4], the half-life amounted to 0.833 h.

The molecule “RRRRRRRRRRPIIRIRHYP [RRRRRRRRRRPIIRIRHYP]” gave a free fraction (fraction unbound) in data set [1] of 0.17. The pEC50 is 5.15 in data set [2] and 5.22 in data set [3]. Besides, the half-life in data set [4] is 4.92 h.

In turn, “RRRRRRRRRRPIIRIRHYR [RRRRRRRRRRPIIRIRHYR]” had a fraction unbound in data set [1] of 0.16. Also, the pEC50 in data set [2] and in data set [3] was 5.22 each time. Further, the half-life in data set [4] came to 0.5 h.

Consider RRRRRRRRRRPIIRIRHYRP, for which the fraction unbound in data set [1] is 0.19. In addition, the pEC50 in data set [2] and in data set [3] was 5.15 each time. Also, the half-life in data set [4] was 2.07 h.

As for PRRRRRRRRRRPIWTIKLWHP, the pEC50 in data set [2] was 5.22; in data set [3], 5.40.

`CC[C@@H](C)[C@@H](NC(=O)[C@H]1CCCN1C(=O)[C@@H](CCCNC(=N)N)NC(=O)[C@@H](CCCNC(=N)N)NC(=O)[C@@H](CCCNC(=N)N)NC(=O)[C@@H](CCCNC(=N)N)NC(=O)[C@@H](CCCNC(=N)N)NC(=O)[C@@H](CCCNC(=N)N)NC(=O)[C@@H](CCCNC(=N)N)NC(=O)[C@@H](CCCNC(=N)N)NC(=O)[C@@H](CCCNC(=N)N)NC(=O)[C@H](N)CCCNC(=N)N)C(=O)N[C@H](CCCNC(=N)N)C(=O)N[C@@H](C(=O)N[C@H](Cc1c[nH]cn1)C(=O)N[C@H](Cc1ccc(O)cc1)C(=O)N[C@H](Cc1ccccc1)C(=O)N[C@H](CCCNC(=N)N)C(=O)N[C@H](CCCNC(=N)N)C(=O)O)[C@H](C)CC` [rrrrrrrrrrpirihyfrr] (H-[dR][dR][dR][dR][dR][dR][dR][dR][dR][dR][dP][dI][dR][dI][dH][dY][dF][dR][dR]-OH; N-terminus and C-terminus assumed) showed a free fraction (fraction unbound) in data set [1] of 0.07. Besides, the negative logarithm of the EC50 (pEC50) is 5.30 in data set [2] and 5.40 in data set [3]. The half-life in data set [4] (cells given in hr) was more than 24 h.

In data set [1], PRRRRRRRRRRPITRIRFYRP gave a fraction unbound of 0.11. For the same molecule, the pEC50 was 5.05 in data set [2] and 5.10 in data set [3]. Also, in data set [4], the half-life is 1.72 h.

As for PRRRRRRRRRRPIIRIRHYRP, the unbound share (fraction unbound) in data set [1] is 0.11. The negative-log EC50 (pEC50) in data set [2] is 4.92; in data set [3] it was 5.00. Besides, in data set [4], the half-life was found to be 1.93 h.

Molecule `CC[C@H](C)[C@H](NC(=O)[C@@H]1CCCN1C(=O)[C@H](CCCNC(=N)N)NC(=O)[C@H](CCCNC(=N)N)NC(=O)[C@H](CCCNC(=N)N)NC(=O)[C@H](CCCNC(=N)N)NC(=O)[C@H](CCCNC(=N)N)NC(=O)[C@H](CCCNC(=N)N)NC(=O)[C@H](CCCNC(=N)N)NC(=O)[C@H](CCCNC(=N)N)NC(=O)[C@H](CCCNC(=N)N)NC(=O)[C@@H](N)CCCNC(=N)N)C(=O)N[C@H](CCCCN)C(=O)N[C@H](Cc1ccccc1)C(=O)N[C@H](CCCNC(=N)N)C(=O)N[C@H](Cc1ccccc1)C(=O)N[C@H](Cc1ccc(O)cc1)C(=O)N[C@H](Cc1c[nH]cn1)C(=O)N[C@H](CCCNC(=N)N)C(=O)O` [RRRRRRRRRRPIkfrfyhr] (H-RRRRRRRRRRPI[dK][dF][dR][dF][dY][dH][dR]-OH; N-terminus and C-terminus assumed) had a free fraction (fraction unbound) in data set [1] of 0.19. For the same molecule, the results for the pEC50 in data set [2] and in data set [3] were 4.82 and 4.96, respectively. The half-life in data set [4] is 4.42 h.

The molecule `CC[C@@H](C)[C@@H](NC(=O)[C@H]1CCCN1C(=O)[C@@H](CCCNC(=N)N)NC(=O)[C@@H](CCCNC(=N)N)NC(=O)[C@@H](CCCNC(=N)N)NC(=O)[C@@H](CCCNC(=N)N)NC(=O)[C@@H](CCCNC(=N)N)NC(=O)[C@@H](CCCNC(=N)N)NC(=O)[C@@H](CCCNC(=N)N)NC(=O)[C@@H](CCCNC(=N)N)NC(=O)[C@@H](CCCNC(=N)N)NC(=O)[C@H](N)CCCNC(=N)N)C(=O)N[C@H](Cc1ccc(O)cc1)C(=O)N[C@H](CCC(N)=O)C(=O)N[C@H](Cc1c[nH]c2ccccc12)C(=O)N[C@H](Cc1ccc(O)cc1)C(=O)N[C@H](CCCNC(=N)N)C(=O)N[C@H](Cc1c[nH]c2ccccc12)C(=O)N[C@H](CCC(N)=O)C(=O)O` [rrrrrrrrrrpiyqwyrwq] (H-[dR][dR][dR][dR][dR][dR][dR][dR][dR][dR][dP][dI][dY][dQ][dW][dY][dR][dW][dQ]-OH) gave a fraction unbound in data set [1] of 0.01. In addition, the pEC50 was 5.30 in data set [2] and 5.22 in data set [3]. Further, the half-life in data set [4] (cells given in hr) was more than 24 h.

`CC[C@@H](C)[C@@H](NC(=O)[C@H]1CCCN1C(=O)[C@@H](CCCNC(=N)N)NC(=O)[C@@H](CCCNC(=N)N)NC(=O)[C@@H](CCCNC(=N)N)NC(=O)[C@@H](CCCNC(=N)N)NC(=O)[C@@H](CCCNC(=N)N)NC(=O)[C@@H](CCCNC(=N)N)NC(=O)[C@@H](CCCNC(=N)N)NC(=O)[C@@H](CCCNC(=N)N)NC(=O)[C@@H](CCCNC(=N)N)NC(=O)[C@H](N)CCCNC(=N)N)C(=O)N[C@H](Cc1c[nH]cn1)C(=O)N[C@H](CC(C)C)C(=O)N[C@H](CCCNC(=N)N)C(=O)N[C@@H](C(=O)N[C@H](Cc1c[nH]c2ccccc12)C(=O)N[C@H](CCCNC(=N)N)C(=O)N[C@H](CC(N)=O)C(=O)O)[C@H](C)CC` [rrrrrrrrrrpihlriwrn] (H-[dR][dR][dR][dR][dR][dR][dR][dR][dR][dR][dP][dI][dH][dL][dR][dI][dW][dR][dN]-OH; N-terminus and C-terminus assumed): in data set [1], the fraction unbound was 0.05. Also, the pEC50 in data set [2] and in data set [3] was 5.40 throughout. Besides, the half-life in data set [4] (cells given in hr) is more than 24 h.

`N=C(N)NCCC[C@@H](N)C(=O)N[C@H](CCCNC(=N)N)C(=O)N[C@H](CCCNC(=N)N)C(=O)N[C@H](CCCNC(=N)N)C(=O)N[C@H](CCCNC(=N)N)C(=O)N[C@H](CCCNC(=N)N)C(=O)N[C@H](CCCNC(=N)N)C(=O)N[C@H](CCCNC(=N)N)C(=O)N[C@H](CCCNC(=N)N)C(=O)NCC(=O)NCC(=O)NCC(=O)N[C@H](Cc1ccc(O)cc1)C(=O)N[C@H](CCC(N)=O)C(=O)N[C@H](Cc1c[nH]c2ccccc12)C(=O)N[C@H](Cc1ccc(O)cc1)C(=O)N[C@H](CCCNC(=N)N)C(=O)N[C@H](Cc1c[nH]c2ccccc12)C(=O)N[C@H](CCC(N)=O)C(=O)O` [rrrrrrrrrgggyqwyrwq] (H-[dR][dR][dR][dR][dR][dR][dR][dR][dR]GGG[dY][dQ][dW][dY][dR][dW][dQ]-OH; N-terminus and C-terminus assumed) showed a fraction unbound in data set [1] of 0.11. Moreover, the negative logarithm of the EC50 (pEC50) in data set [2] was 5.10; in data set [3] it was 5.22. Further, the half-life in data set [4] (cells given in hr) was more than 24 h.

For the molecule “RRRRRRRRRRPILTRITLE [RRRRRRRRRRPILTRITLE, reference compound]”, in data set [1], the fraction unbound was 0.34. In addition, the results for the negative logarithm of the EC50 (pEC50) in data set [2] and in data set [3] were 5.05 and 5.10, respectively. Also, the half-life in data set [4] is 5.65 h.

`CC[C@H](C)[C@H](NC(=O)[C@@H]1CCCN1C(=O)[C@H](CCCNC(=N)N)NC(=O)[C@H](CCCNC(=N)N)NC(=O)[C@H](CCCNC(=N)N)NC(=O)[C@H](CCCNC(=N)N)NC(=O)[C@H](CCCNC(=N)N)NC(=O)[C@H](CCCNC(=N)N)NC(=O)[C@H](CCCNC(=N)N)NC(=O)[C@H](CCCNC(=N)N)NC(=O)[C@H](CCCNC(=N)N)NC(=O)[C@@H](N)CCCNC(=N)N)C(=O)N[C@H](CCCNC(=N)N)C(=O)N[C@H](Cc1ccccc1)C(=O)N[C@H](Cc1ccc(O)cc1)C(=O)N[C@H](Cc1ccc(O)cc1)C(=O)N[C@H](Cc1c[nH]cn1)C(=O)N[C@H](CCCNC(=N)N)C(=O)N[C@H](CCCNC(=N)N)C(=O)O` [RRRRRRRRRRPIrfyyhrr] (H-RRRRRRRRRRPI[dR][dF][dY][dY][dH][dR][dR]-OH; N-terminus and C-terminus assumed): in data set [1], the fraction unbound was 0.09. In addition, the pEC50 in data set [2] was 5.05; in data set [3], 4.80. For the same molecule, the half-life in data set [4] turned out to be 0.95 h.
